{"source": "patent US7642239B2", "about": "“Inhibition of placenta growth factor (PLGF) mediated metastasis and/or angiogenesis” (Center for Molecular Medicine and Immunology, priority 2005, dated 2010)", "key": {"MDA-MB-231 [1]": {"system": "MDA-MB-231", "test": "Matrigel cell invasion assay, MDA-MB-231", "assay_type": "cell-based, human", "method": "(§1) Cellular invasion was determined by addition of 5×10^4cells to growth factor-reduced Matrigel invasion chambers (BD Biosciences Discovery Labware, Bedford, Mass.) (Taylor et al., 2003b; Passaniti et al., 1992, Lab Invest 67, 519-528). Additives to the Matrigel® plugs were pre-incubated together in a total volume of 100 μl PBS at RT for 10 min, after which each additive was added to the Matrigel. Growth factors (2.0 or 0.2 nM), peptide (2 μg/ml), or antibody (1 μg/ml) were added to cells in low serum (0.1% fetal bovine serum [FBS]) medium. Baseline and chemoattractant-based invasion (10% FBS) were included. The number of invading cells was determined by counting the number of cells on the bottom of the invasion chamber membrane after staining at 100× magnification after 24 h (MDA-MB-231) or 48 h (MCF-7, MDA-MB-468). The results of three to five separate experiments are presented."}, "MCF-7 [2]": {"system": "MCF-7", "test": "Matrigel cell invasion assay, MCF-7", "assay_type": "cell-based, human", "details": "48 h", "method": "as §1"}, "MCF-7 [3]": {"system": "MCF-7", "test": "Wound-healing (motility) assay, MCF-7", "assay_type": "cell-based, human", "details": "for Relative activity: unit assumed; for Migrating cells: 18-24 h", "method": "(§2) MCF-7, MDA-MB-23 1, and MDA-MB-468 breast tumor cell lines or HECs were seeded onto sterile glass coverslips in Petri dishes or six-well plates. When the cells were 70-80% confluent, the monolayers were scratched with a sterile plastic pipet tip.\n(§3) Inhibitor concentrations were 50 μM PD98059 (PD98) (mitogen activated protein kinase-kinase 1 [MEK1] inhibitor), 5 nM Wortmannin (phosphatidyl inositol 3 kinase [PI3K] inhibitor), or human recombinant soluble Flt-1 (sFlt-1) (R&D Systems). […] Cells were pre-incubated with PD98 and Wortmannin for 15-30 min before addition of PlGF. Stained (Wright-Giemsa) and mounted coverslips were examined microscopically. Five to ten 100× fields were evaluated by counting the number of cells separated from the wound edges and which appeared to be migrating toward the center of the wound. Results are reported as the average number of cells migrating into the wound/100× field. In some cases data from separate experiments were combined to accommodate inclusion of various treatments in the tables.\n(§4) Antibody concentration was 1 μg/ml. MEK1 inhibitor, PD98059 (PD98), 50 μM. PI3K inhibitor, Wortmannin, 5 nM. […] Values for antibody and inhibitor treatments were from separate experiments which included all relevant controls. […] UT denotes untreated controls. *P<0.01 (ANOVA) compared to UT; † P<0.02 (ANOVA) compared to PlGF only. ‡ P<0.001 (ANOVA) compared to PlGF only."}, "PlGF": {"molecular_target": "T1, PlGF (Homo sapiens, UniProt P49763)", "T1 construct": "purchased R&D Systems", "T1 sequence (P49763 19-170 isoform P49763-3 limits assumed)": "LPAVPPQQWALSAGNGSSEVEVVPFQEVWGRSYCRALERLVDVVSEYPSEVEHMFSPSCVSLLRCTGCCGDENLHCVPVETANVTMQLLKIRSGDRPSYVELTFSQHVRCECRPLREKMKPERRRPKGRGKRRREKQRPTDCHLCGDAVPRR", "test": "Free peptide binding ELISA (FLAG epitope probe), PlGF-coated wells", "details": "peptide with C-terminal FLAG epitope", "method": "(§5) Competition assays were done with 2.5 or 25 U/ml heparin (Sigma, St. Louis, Mo.). BP1, 3, 4, and a scrambled version of BP3 (scrBP3) were synthesized with a linker followed by the FLAG epitope ([…] SEQ ID NO:5) at the C-terminus. Thirty minutes after addition of the first reagent, the second reagent was added, followed by another 30 minute incubation. Peptide binding was assessed by probing for the FLAG epitope (Prickett et al., Biotechniques 7:580-9, 1989; Castrucci et al., J. Virol. 66:4647-53, 1992). Absorbance was read at 490 nm."}, "MDA-MB-468": {"system": "MDA-MB-468", "test": "Matrigel cell invasion assay, MDA-MB-468", "assay_type": "cell-based, human", "details": "48 h", "method": "as §1"}, "MDA-MB-231 [4]": {"system": "MDA-MB-231", "test": "Wound-healing (motility) assay, MDA-MB-231", "assay_type": "cell-based, human", "details": "for Relative activity: unit assumed; for Migrating cells: 18-24 h", "method": "as §2, §3, §4"}, "[5]": {"system": "PlGF-mediated angiogenesis in corneal tissues", "test": "Mouse corneal micropocket angiogenesis assay", "assay_type": "in vivo, C57B16/J mice", "details": "micropellets, 100 ng PlGF with 1 μM peptide, day 5", "method": "The ability of PlGF ligands to block PlGF-mediated angiogenesis in corneal tissues in vivo is investigated. Corneal micropockets are created using a modified von Graefe cataract knife in both eyes of male 5-6-wk-old C57B16/J mice. Micropellets comprised of a sustained release formulation of polyglucuronic acid/polylactic acid containing 100 ng of PlGF or PlGF with 1 μM BP-1, BP-2, BP-3 or BP-4 are implanted into each corneal pocket. Eyes are examined by a slit-lamp biomicroscope on day 5 after pellet implantation. Vessel length and neovascularization are measured."}, "VEGF165": {"molecular_target": "T2, VEGF165 (Homo sapiens, UniProt P15692)", "T2 construct": "purchased R&D Systems", "T2 sequence (P15692 27-191 isoform P15692-4)": "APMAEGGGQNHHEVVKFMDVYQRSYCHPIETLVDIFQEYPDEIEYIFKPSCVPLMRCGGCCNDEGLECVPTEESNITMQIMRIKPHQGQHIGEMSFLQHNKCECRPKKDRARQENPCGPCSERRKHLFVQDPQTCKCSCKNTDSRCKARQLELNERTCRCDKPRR", "test": "Free peptide binding ELISA (FLAG epitope probe), VEGF-coated wells", "method": "as §5"}, "[6]": {"system": "microvessels in PlGF-containing Matrigel plugs", "test": "Matrigel basement membrane plug angiogenesis assay", "assay_type": "in vivo, nude mice", "details": "PlGF-containing implants ± BP1, s.c.; PBS controls 16.2±11.4", "excerpt": "To further investigate the effect of PlGF binding peptides on endothelial cell migration and angiogenesis, Matrigel basement membrane plugs containing PlGF, BP1, BP2, or PBS were implanted s.c. on the flanks of nude mice. The number of interior microvessels in the PBS controls was 16.2±11.4/mm^2. PlGF-only implants contained 28.9±17.2/mm^2 (1.8-fold vs. mock-treated implants), and implants with PlGF and BP1 contained only 12.3±13.0 microvessels/mm^2 (P<0.02)."}, "[7]": {"details": "PlGF 2 nM ± test agent, relative to PlGF-only value"}, "[8]": {"details": "VEGF 2 nM ± test agent, relative to VEGF-only value"}}, "note": "Marks after values point to notes of the source that are not given here. Ends that are not written are not given here."}
{"sequence": "SHRYRLAIQLHASDSSSSCV [BP1]", "values": [{"measurement": "Average fold-change in the number of cells on the membrane compared to untreated controls", "setting": "MDA-MB-231 [1]; PlGF 0.2 nM ± peptide 2 μg/ml, 24 h", "value": "1.3 ± 0.1", "unit": "fold"}, {"measurement": "invading cells, PlGF plus peptide", "setting": "MDA-MB-231 [1]; PlGF-stimulated invasion with added peptide, 24 h", "value": "15±4.2", "unit": "cells"}, {"measurement": "decrease in PlGF-stimulated invasion", "setting": "MDA-MB-231 [1]; added peptide", "value": 50, "unit": "%"}, {"measurement": "Average fold-change in the number of cells on the membrane compared to untreated controls", "setting": "MDA-MB-231 [1]; peptide 2 μg/ml alone, 24 h", "value": "1.0 ± 0.6", "unit": "fold"}, {"measurement": "Average fold-change in the number of cells on the membrane compared to untreated controls", "setting": "MCF-7 [2]; PlGF 0.2 nM ± peptide 2 μg/ml", "value": "0.3 ± 0.0", "unit": "fold"}, {"measurement": "Average fold-change in the number of cells on the membrane compared to untreated controls", "setting": "MCF-7 [2]; peptide 2 μg/ml alone", "value": "0.7 ± 0.4", "unit": "fold"}, {"measurement": "Relative activity", "setting": "MCF-7 [3]; [7]", "value": 45, "unit": "%"}, {"measurement": "Relative activity", "setting": "MCF-7 [3]; [8]", "value": 102, "unit": "%"}, {"measurement": "effect on PlGF-stimulated motility (in words)", "setting": "MCF-7 [3]; antibody 1 μg/ml, peptide 2 μM", "value": "inhibited"}, {"measurement": "Migrating cells", "setting": "MCF-7 [3]; growth factor PlGF 2 nM ± test agent (Flt-1 2 nM, peptide 2 μM, antibody 1 μg/ml)", "value": "10.2 ± 7.8† cells/100× field"}, {"measurement": "Migrating cells", "setting": "MCF-7 [3]; growth factor VEGF 2 nM ± test agent", "value": "12.9 ± 2.9", "unit": "cells/100× field"}, {"measurement": "binding to PlGF (A490)", "setting": "PlGF", "value": "0.100±0.058"}, {"measurement": "Average fold-change in the number of cells on the membrane compared to untreated controls", "setting": "MDA-MB-468; PlGF 0.2 nM ± peptide 2 μg/ml", "value": "0.6 ± 0.4", "unit": "fold"}, {"measurement": "Average fold-change in the number of cells on the membrane compared to untreated controls", "setting": "MDA-MB-468; peptide 2 μg/ml alone", "value": "1.2 ± 0.3", "unit": "fold"}, {"measurement": "Relative activity", "setting": "MDA-MB-231 [4]; [7]", "value": 32, "unit": "%"}, {"measurement": "Relative activity", "setting": "MDA-MB-231 [4]; [8]", "value": 132, "unit": "%"}, {"measurement": "effect on PlGF-stimulated motility (in words)", "setting": "MDA-MB-231 [4]; antibody 1 μg/ml, peptide 2 μM", "value": "inhibited"}, {"measurement": "Migrating cells", "setting": "MDA-MB-231 [4]; growth factor PlGF 2 nM ± test agent (Flt-1 2 nM, peptide 2 μM, antibody 1 μg/ml, PD98059 50 μM, Wortmannin 5 nM)", "value": "13.6 ± 6.1† cells/100× field"}, {"measurement": "Migrating cells", "setting": "MDA-MB-231 [4]; growth factor VEGF 2 nM ± test agent (peptide 2 μM, antibody 1 μg/ml)", "value": "14.7 ± 2.1", "unit": "cells/100× field"}, {"measurement": "effect on PlGF mediated angiogenesis in corneal tissues", "setting": "[5]", "value": "inhibits"}, {"measurement": "binding to VEGF (in words)", "setting": "VEGF165; ELISA-based binding assay", "value": "No measurable binding"}, {"measurement": "binding to VEGF165 (A490)", "setting": "VEGF165; peptide with C-terminal FLAG epitope", "value": "0.299±0.174"}, {"measurement": "interior microvessels", "setting": "[6]", "value": "12.3±13.0 /mm^2"}]}
